# What was measured:
# [1] = result in words
# [2] = colourless aqueous solution
solubility in water [1],fluorescence wavelength maximum [2],Compound
not soluble in water,,"O=S(=O)([O-])c1ccc(Nc2nc(Cl)nc(Cl)n2)c(-c2nc3ccccc3s2)c1.[Na+] [Compound II, Sodium salt of 4-(4,6-dichloro-1,3,5-triazin-2-ylamino)-3-(benzo[d]thiazol-2-yl)benzenesulfonic acid]"
highly soluble in water,550 nm,"O=S(=O)([O-])c1cccc(Nc2nc(Cl)nc(Nc3ccc(S(=O)(=O)[O-])cc3-c3nc4ccccc4s3)n2)c1.[Na+].[Na+] [Compound III, Disodium salt of 4-[4-Chloro-6-(3-sulfophenylamino)-1,3,5-triazin-2-ylamino]-3-(benzo[d]thiazol-2-yl)benzenesulfonic acid]"
highly soluble in water,570 nm,"O=C([O-])CN(CC(=O)[O-])c1nc(Nc2ccc(S(=O)(=O)[O-])cc2-c2nc3ccccc3s2)nc(N(CC(=O)[O-])CC(=O)[O-])n1.[K+].[K+].[K+].[K+].[K+] [Compound IV, Pentapotassium salt of 4-{4,6-bis-[di(carboxymethyl)amino]-1,3,5-triazin-2-ylamino}-3-(benzo[d]thiazol-2-yl)benzenesulfonic acid]"
highly soluble in water,565 nm,"O=S(=O)([O-])c1cccc(Nc2nc(Nc3ccc(S(=O)(=O)[O-])cc3-c3nc4ccccc4s3)nc(N3CCOCC3)n2)c1.[Na+].[Na+] [Compound IX, Disodium salt of 4-[4-(3-sulfophenylamino)-6-morpholino-1,3,5-triazin-2-ylamino]-3-(benzo[d]thiazol-2-yl)benzenesulfonic acid]"
highly soluble in water,582 nm,"O=S(=O)([O-])c1ccc(Nc2nc(Nc3ccc(S(=O)(=O)[O-])cc3-c3nc4ccccc4s3)nc(N3CCOCC3)n2)c(-c2nc3ccccc3s2)c1.[Na+].[Na+] [Compound VI, Disodium salt of 4-{4-[2-(benzo[d]thiazol-2-yl)-4-sulfophenylamino]-6-morpholino-1,3,5-triazin-2-ylamino}-3-(benzo[d]thiazol-2-yl)benzenesulfonic acid]"
highly soluble in water,547 nm,"O=C(Nc1ccc(S(=O)(=O)[O-])cc1-c1nc2ccccc2s1)c1ccccc1S(=O)(=O)[O-].[Na+].[Na+] [Compound VII, Disodium salt of 4-(2-sulfobenzoylamino)-3-(benzoldlthiazol-2-yl)benzenesulfonic acid]"
highly soluble in water,548 nm,"O=C([O-])CNc1nc(Cl)nc(Nc2ccc(S(=O)(=O)[O-])cc2-c2nc3ccccc3s2)n1.[Na+].[Na+] [Compound VIII, Disodium salt of 4-(4-carboxymethylamino-6-chloro-1,3,5-triazin-2-ylamino)-3-(benzo[d]thiazol-2-yl)benzenesulfonic acid]"
highly soluble in water,565 nm,"O=C([O-])CNc1nc(NCC(=O)[O-])nc(Nc2ccc(S(=O)(=O)[O-])cc2-c2nc3ccccc3s2)n1.[Na+].[Na+].[Na+] [Compound X, Trisodium salt of 4-[4,6-bis(carboxymethylamino)-1,3,5-triazin-2-ylamino]-3-(benzo[d]thiazol-2-yl)benzenesulfonic acid]"
highly soluble in water,517 nm,"O=S(=O)([O-])c1cccc(Nc2nc(Cl)nc(Nc3ccc(S(=O)(=O)[O-])cc3-c3nc4ccccc4o3)n2)c1.[Na+].[Na+] [Compound XIII, Disodium salt of 4-[4-chloro-6-(3-sulfophenylamino)-1,3,5-triazin-2-ylamino]-3-(benzo[d]oxazol-2-yl)benzenesulfonic acid]"
highly soluble in water,517 mm,"N.N.N.O=C(O)CN(CC(=O)O)c1nc(Cl)nc(Nc2ccc(S(=O)(=O)O)cc2-c2nc3ccccc3o2)n1 [Compound XIV, Triammonium salt of 4-{4-chloro-6-[di(carboxymethyl)amino]-1,3,5-triazin-2-ylamino}-3-(benzo[d]oxazol-2-yl)benzenesulfonic acid]"

Compound,solubility in water [1],fluorescence wavelength maximum [2]
"O=S(=O)([O-])c1ccc(Nc2nc(Cl)nc(Nc3ccc(S(=O)(=O)[O-])cc3-c3nc4ccccc4s3)n2)c(-c2nc3ccccc3s2)c1.[Na+].[Na+] [Compound V, Disodium salt of 4-{4-[2-(benzo[d]thiazol-2-yl)-4-sulfophenylamino]-6-chloro-1,3,5-triazin-2-ylamino}-3-(benzo[d]thiazol-2-yl)benzenesulfonic acid]",poorly soluble in water,
